Results as given in article PMC10020958, “2-(4-Fluorophenyl)-1H-benzo[d]imidazole as a Promising Template for the Development of Metabolically Robust, α1β2γ2GABA-A Receptor-Positive Allosteric Modulators” (ACS Chemical Neuroscience, 2023).

Legend:
[1] = target: GABA-A receptor (benzodiazepine site, α1/γ2 interface); experiment: Radioligand binding assay for the GABA-A receptor ([3H]-flunitrazepam displacement, rat brain homogenate); settings: pKi = -log Ki, n.a. = no affinity
[2] = target: T1, α1β2γ2-GABA-A receptors stably expressed in HEK293 cells (Homo sapiens, UniProt P14867+P18507); experiment: Electrophysiological studies, automated patch clamp (QPatch16X), positive allosteric modulation of GABA-induced Cl- currents; type: cell-based; settings: compound 1 μM co-applied with 10 μM GABA; GABA alone = 100%; mean ± SEM
T1 construct: expressed in transfected cells
Protocol: Given that ligands binding within the α1/γ2 interface act as PAMs, we selected the most promising 1H-benzo[d]imidazoles (9, 15, 16, 23, and 29) for electrophysiological studies using automated patch clamp recordings (QPatch16X, Sophion). We expected that 1H-benzo[d]imidazoles would potentiate GABA-induced Cl^– currents rather than inducing ion passage alone.
Electrophysiology studies were performed using the QPatch16X automatic patch clamp platform (Sophion Biosciences) and HEK293 cells, stably expressing the α1β2γ2 subunits of the human GABA-A receptor. Prior to the assay recordings, the cells were transferred from the culture flask through a TrypLE Express solution (LifeTechnologies) and resuspended in serum-free media. The cells were placed in the lidless microtube, located onboard the automated electrophysiology instrument. The cells were then automatically relocated to a built-in centrifuge, spun down, and washed in Ringer’s extracellular solution. The cells were transferred to the pipetting wells of a single-use 16-channel planar patch chip plate (QPlate 16X), and gigaseals were formed upon implementation of a combined suction/voltage protocol. Subsequent suction induced whole-cell configuration. The chloride currents passed via the GABA-A receptor were recorded for 7 s after single addition of a tested molecule. Through whole-cell recording, the holding potential was set to −90 mV. The assay was performed at room temperature. The extracellular solution was composed of the following ingredients: consisted of 2 mM […], 145 mM NaCl, 10 mM HEPES, CaCl2, 1 mM MgCl2, 10 mM glucose (pH 7.4, 300 mOsm), and intracellular solution contained 140 mM CsF, 1 mM EGTA, 5 mM CsOH, 10 mM HEPES, and 20 mMNaCl (pH 7.2, 320 mOsm). The screening assays were established in the instrument software by sequential application of 10 μM GABA (reference agonist AG1), 1 μM examined molecule compounds, and compounds co-administered with 10 μM GABA (T2); second addition of 10 μM GABA (AG2); 10 μM bicuculline (reference antagonist) along with 10 μM GABA (ATG). The intermission among the addition of particular molecules was 60 s. In a typical procedure, 5 μL of ligand was added to the cells, followed by 3 s of washout with an extracellular solution (two times […]). For the allosteric modulator/antagonist mode, the cells were preincubated with the tested compound alone for 50 s, followed by the addition of the reference agonist. The data obtained were processed using QPatch Assay Software (v5.0, Sophion Biosciences) and are represented as the mean of at least three independent experiments performed on separate cells. The validation criteria for a single test were current amplitude evoked by adding GABA greater than 500 pA and a change between cells’ response to GABA applications (AG1 and AG2) not greater than 25%. The relative compound efficiency was analyzed as the baseline-corrected ratio of maximal current amplitudes induced by the addition of tested compounds and reference agonist (T1-ATG/AG1-ATG or T2-ATG/AG1-ATG). The obtained raw current recordings were normalized and represented as % of the current amplitude induced by a reference agonist (GABA = 100%) using the QPatch Assay Software (v5.0, Sophion Biosciences).[24]

T1 sequence (P14867 28-456): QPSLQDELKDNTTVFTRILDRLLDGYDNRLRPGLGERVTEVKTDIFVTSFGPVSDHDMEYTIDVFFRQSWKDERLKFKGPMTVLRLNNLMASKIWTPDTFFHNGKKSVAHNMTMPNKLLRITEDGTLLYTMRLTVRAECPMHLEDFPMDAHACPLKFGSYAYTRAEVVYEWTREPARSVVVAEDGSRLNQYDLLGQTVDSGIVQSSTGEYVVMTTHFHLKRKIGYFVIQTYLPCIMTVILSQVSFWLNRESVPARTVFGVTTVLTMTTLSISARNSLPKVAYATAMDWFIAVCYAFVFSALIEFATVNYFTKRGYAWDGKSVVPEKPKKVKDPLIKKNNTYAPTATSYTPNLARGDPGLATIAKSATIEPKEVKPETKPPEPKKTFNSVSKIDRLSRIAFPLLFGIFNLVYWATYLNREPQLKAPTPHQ
T1 sequence (P47870 25-512 partner limits assumed): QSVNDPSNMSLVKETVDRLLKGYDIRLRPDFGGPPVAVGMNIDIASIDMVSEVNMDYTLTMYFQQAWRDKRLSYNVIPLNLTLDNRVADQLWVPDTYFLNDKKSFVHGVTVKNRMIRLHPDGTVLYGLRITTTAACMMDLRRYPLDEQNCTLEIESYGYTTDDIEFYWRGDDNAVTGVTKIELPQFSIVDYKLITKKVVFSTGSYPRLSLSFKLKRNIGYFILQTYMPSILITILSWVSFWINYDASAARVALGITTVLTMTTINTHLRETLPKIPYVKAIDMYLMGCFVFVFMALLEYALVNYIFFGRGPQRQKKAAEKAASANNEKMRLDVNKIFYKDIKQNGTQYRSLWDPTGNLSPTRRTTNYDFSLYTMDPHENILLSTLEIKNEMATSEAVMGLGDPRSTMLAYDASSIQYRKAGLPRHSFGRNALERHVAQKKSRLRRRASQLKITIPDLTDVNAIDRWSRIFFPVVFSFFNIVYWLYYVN
T1 sequence (P18507 40-475): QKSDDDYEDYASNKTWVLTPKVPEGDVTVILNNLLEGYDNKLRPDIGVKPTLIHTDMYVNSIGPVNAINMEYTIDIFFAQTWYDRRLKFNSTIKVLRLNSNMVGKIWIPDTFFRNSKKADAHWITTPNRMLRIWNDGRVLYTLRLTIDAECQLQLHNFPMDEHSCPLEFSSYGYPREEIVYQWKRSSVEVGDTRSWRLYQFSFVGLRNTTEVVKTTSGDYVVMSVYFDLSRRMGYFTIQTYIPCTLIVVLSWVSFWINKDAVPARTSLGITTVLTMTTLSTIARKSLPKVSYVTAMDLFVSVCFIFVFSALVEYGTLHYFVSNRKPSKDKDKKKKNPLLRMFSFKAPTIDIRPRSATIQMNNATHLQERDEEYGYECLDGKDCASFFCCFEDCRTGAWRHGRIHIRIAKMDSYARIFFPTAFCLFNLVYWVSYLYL

O=C(Cn1c(-c2ccc(F)cc2)nc2ccccc21)N1CCCC1 [Compound 16, 2-(2-(4-Fluorophenyl)-1H-benzo[d]imidazole-1-yl)-1-(pyrrolidin-1-yl)ethan-1-one]
pKi GABA-A [1]: 5.53
melting point: 212.9 to 214 °C
% of 10 μM GABA response [2]: 124 ± 5,2%

COc1ccc(NC(=O)Cn2c(-c3ccc(F)cc3)nc3ccccc32)cc1 [Compound 26, 2-(2-(4-Fluorophenyl)-1H-benzo[d]imidazole-1-yl)-N-(4-methoxyphenyl)acetamide]
pKi GABA-A [1]: loss of affinity
melting point: 255.1 to 255.7 °C

Cc1ccc2c(c1)nc(-c1ccc(F)cc1)n2CC(=O)Nc1ccccc1 [Compound 14, 2-(2-(4-Fluorophenyl)-5-methyl-1H-benzo[d]imidazole-1-yl)-N-phenylacetamide]
pKi GABA-A [1]: no affinity
melting point: 207.3 to 209.2 °C

O=C(Cn1c(-c2ccc(F)cc2)nc2ccccc21)N1CCNCC1 [Compound 17, 2-(2-(4-Fluorophenyl)-1H-benzo[d]imidazole-1-yl)-1-(piperazin-1-yl)ethan-1-one]
pKi GABA-A [1]: loss of activity
melting point: 232.8 to 234.1 °C

COc1ccccc1NC(=O)Cn1c(-c2ccc(F)cc2)nc2ccccc21 [Compound 24, 2-(2-(4-Fluorophenyl)-1H-benzo[d]imidazole-1-yl)-N-(2-methoxyphenyl)acetamide]
pKi GABA-A [1]: loss of affinity
melting point: 206.9 to 207.2 °C

O=C(Cn1c(-c2ccc(F)cc2)nc2ccccc21)N1CCSCC1 [Compound 21, 2-(2-(4-Fluorophenyl)-1H-benzo[d]imidazole-1-yl)-1-thiomorpholinoethan-1-one]
melting point: 205.3 to 205.8 °C

O=C(Cn1c(-c2ccc(F)cc2)nc2ccccc21)Nc1ccccc1 [Compound 22, 2-(2-(4-Fluorophenyl)-1H-benzo[d]imidazole-1-yl)-N-phenylacetamide]
melting point: 236.7 to 239 °C

Cc1ccc2nc(-c3ccc(F)cc3)n(CC(=O)Nc3ccccc3)c2c1 [Compound 13, 2-(2-(4-Fluorophenyl)-6-methyl-1H-benzo[d]imidazole-1-yl)-N-phenylacetamide]
pKi GABA-A [1]: 5.53
melting point: 202.5 to 205 °C

COc1cccc(NC(=O)Cn2c(-c3ccc(F)cc3)nc3ccccc32)c1 [Compound 25, 2-(2-(4-Fluorophenyl)-1H-benzo[d]imidazole-1-yl)-N-(3-methoxyphenyl)acetamide]
pKi GABA-A [1]: 5.02
melting point: 149.1 to 149.9 °C

Cc1ccc2c(c1)nc(-c1ccc(F)cc1)n2CC(=O)N1CCSCC1 [Compound 12, 2-(2-(4-Fluorophenyl)-5-methyl-1H-benzo[d]imidazole-1-yl)-1-thiomorpholinoethan-1-one]
pKi GABA-A [1]: no affinity
melting point: 199 to 200.9 °C

O=C(Cn1c(-c2ccc(F)cc2)nc2ccccc21)Nc1ccc(F)cc1 [Compound 29, N-(4-Fluorophenyl)-2-(2-(4-fluorophenyl)-1H-benzo[d]imidazole-1-yl)acetamide]
pKi GABA-A [1]: 5.74
melting point: 248 to 248.2 °C
% of 10 μM GABA response [2]: 112 ± 2,8%

Cc1ccc2c(c1)nc(-c1ccc(F)cc1)n2CC(=O)N1CCCC1 [Compound 10, 2-(2-(4-Fluorophenyl)-5-methyl-1H-benzo[d]imidazole-1-yl)-1-(pyrrolidin-1-yl)ethan-1-one]
pKi GABA-A [1]: no affinity
melting point: 208.7 to 210.2 °C

O=C(Cn1c(-c2ccc(F)cc2)nc2ccccc21)N1CCOCC1 [Compound 20, 2-(2-(4-Fluorophenyl)-1H-benzo[d]imidazole-1-yl)-1-morpholinoethan-1-one]
pKi GABA-A [1]: loss of activity

O=C(Cn1c(-c2ccc(F)cc2)nc2ccccc21)Nc1ccccc1F [Compound 27, N-(2-Fluorophenyl)-2-(2-(4-fluorophenyl)-1H-benzo[d]imidazole-1-yl)acetamide]
melting point: 212.1 to 212.8 °C

O=C(Cn1c(-c2ccc(F)cc2)nc2ccccc21)Nc1cccc(F)c1 [Compound 28, N-(3-Fluorophenyl)-2-(2-(4-fluorophenyl)-1H-benzo[d]imidazole-1-yl)acetamide]
melting point: 182.3 to 182.7 °C

CN(C)C(=O)Cn1c(-c2ccc(F)cc2)nc2ccccc21 [Compound 15, 2-(2-(4-Fluorophenyl)-1H-benzo[d]imidazole-1-yl)-N,N-dimethylacetamide]
pKi GABA-A [1]: 5.39
melting point: 182.3 to 183.1 °C
% of 10 μM GABA response [2]: 105 ± 2,5%

CN1CCN(C(=O)Cn2c(-c3ccc(F)cc3)nc3ccccc32)CC1 [Compound 18, 2-(2-(4-Fluorophenyl)-1H-benzo[d]imidazole-1-yl)-1-(4-methylpiperazin-1-yl)ethan-1-one]
melting point: 172.3 to 173.1 °C

CC1CN(C(=O)Cn2c(-c3ccc(F)cc3)nc3ccccc32)CC(C)N1 (stereo not drawn) [Compound 19, 1-(3,5-Dimethylpiperazin-1-yl)-2-(2-(4-fluorophenyl)-1H-benzo[d]imidazole-1-yl)ethan-1-one]
melting point: 109.6 to 112.4 °C

Cc1ccc(-c2nc3ccc(C)cn3c2CC(=O)N(C)C)cc1 [zolpidem, reference compound]
pKi GABA-A [1]: 7.39
% of 10 μM GABA response [2]: 212 ± 8,5%

Cc1ccc2nc(-c3ccc(F)cc3)n(CC(=O)N3CCSCC3)c2c1 [Compound 11, 2-(2-(4-Fluorophenyl)-6-methyl-1H-benzo[d]imidazole-1-yl)-1-thiomorpholinoethan-1-one]
pKi GABA-A [1]: 5.1
melting point: 205.3 to 207.1 °C
